Source: ChEMBL document CHEMBL5727340, “Substituted nucleoside derivatives useful as anticancer agents” (2019)

Experiment: PRMT5 assay: Compounds were solubilized in DMSO and serially diluted, using 3-fold dilutions, into 100% DMSO at a concentration 50-fold greater than the desired assay concentration. Following dilution, 1 ul was added to an empty 96-well microtiter plate. PRMT5/MEP50 protein complex was combined with H4(1-21) peptide ([…]) in PRMT5 assay buffer (50 mM Tris pH 8.5, 50 mM NaCl, 5 mM MgCl2, 1 mM EDTA, 1 mM TCEP) and 44 ul was added to the microtiter plate containing compound. S-Adenosyl-L-methionine (SAM) was prepared by combining 3H labelled SAM with unlabelled SAM in PRMT5 assay buffer such that the final SAM concentration was 10 uM and the specific activity was 0.2 uCi/ul. The reaction was initiated by adding 5 ul of SAM stock to the microtiter plate. The final reaction conditions were 10 nM PRMT5/MEP50 complex, 200 nM peptide and 1 uM SAM. Following a 25 minute incubation at room temperature, the reaction was stopped with the addition of 100 uL of 20% TCA. The 3H-peptide product was captured using a 96-well filter plate (MSIPN4B, Millipore) and washed 5 times with PBS buffer. Scintillation fluid (100 ul) was added to the dried filter plate and counted in a liquid scintillation counter. IC50 values were determined by fitting the data to the standard 4-parameter dose response equation using Pfizer proprietary software.

Compound	IC50 [µM]
Cc1ncnc2c1ccn2[C@@H]1O[C@@H](C(C)O)[C@H]2OC(C)(C)O[C@H]21 (some centres undefined)	1.73
Cc1ncnc2c1ccn2[C@@H]1O[C@H]([C@H](O)c2ccc3ccn(C)c3c2)[C@@H](O)[C@H]1O	0.01
Cc1ncnc2c1ccn2[C@@H]1O[C@@H](C(C)(C)O)[C@H]2OC(C)(C)O[C@H]21	3.24
Cc1ncnc2c1ccn2[C@@H]1O[C@H]([C@@H](O)c2cccc(F)c2)[C@@H](O)[C@H]1O	2.64
